For test [1], the species on record is Rattus norvegicus. Kind of test: Inhibitory concentration of compound against 45 [Ca2+] influx in neonatal rat cultured spinal sensory neurons. In kind it is functional.
For test [2], the species on record is Rattus norvegicus. Put plainly: Effective concentration of compound to induce 45 [Ca2+] influx in neonatal rat cultured spinal sensory neurons. The test is classed as functional.

Usually IC50 stands for the concentration that gives 50% inhibition. A high value points to lower potency. By EC50 is commonly meant the concentration that produces a half-maximal response. A higher EC50 goes with a need for much substance.

Bounds are passed on as bounds.

In the test filed under Rattus norvegicus [1], `CC(=O)Nc1ccc([C@@H](C)/N=C(\S)NCc2ccc(C(C)(C)C)cc2)cc1` registered a 50% inhibitory concentration (IC50) of 3.6 µM. For the same molecule, the EC50 in the test filed under Rattus norvegicus [2] was more than 100 µM.
As for `C[C@@H](NC(=S)NCc1ccc(C(C)(C)C)cc1)c1ccc(NS(C)(=O)=O)cc1`, in the test listed under Rattus norvegicus [1], half-maximal inhibition (IC50) required 0.05 µM. In addition, the EC50 in the test filed under Rattus norvegicus [2] is more than 100 µM.
In the test listed under Rattus norvegicus [1], `C[C@H](/N=C(\S)NCc1ccc(C(C)(C)C)cc1)c1ccc([N+](=O)[O-])cc1` had a half-inhibitory concentration (IC50) of 14.7 µM. Also, in the test filed under Rattus norvegicus [2], the half-maximal effective concentration (EC50) was more than 100 µM.
In the test filed under Rattus norvegicus [1], `CCC(/N=C(\S)NCc1ccc(C(C)(C)C)cc1)c1ccc(NS(C)(=O)=O)cc1` (centres undefined) gave an IC50 of 0.36 µM. This molecule also displayed an EC50 in the test filed under Rattus norvegicus [2] of more than 100 µM.
`CCCC(/N=C(\S)NCc1ccc(C(C)(C)C)cc1)c1ccc(NS(C)(=O)=O)cc1` (centres undefined): the 50% inhibitory concentration (IC50) in the test listed under Rattus norvegicus [1] worked out at 1.49 µM. Moreover, in the test listed under Rattus norvegicus [2], the EC50 was more than 100 µM.
For `CC[C@@H](/N=C(\S)NCc1ccc(C(C)(C)C)cc1)c1ccc(NS(C)(=O)=O)cc1`, in that order: 0.05 µM and more than 100 µM.
With `C[C@@H](/N=C(\S)NCc1ccc(C(C)(C)C)cc1)c1ccc([N+](=O)[O-])cc1`, it took 0.58 µM to reach half-maximal inhibition in the test listed under Rattus norvegicus [1] (IC50). The molecule further registered an EC50 in the test listed under Rattus norvegicus [2] of more than 100 µM.
With `C[C@H](/N=C(\S)NCc1ccc(C(C)(C)C)cc1)c1ccccc1`, the IC50 in the test listed under Rattus norvegicus [1] stood at 25.5 µM. Moreover, the EC50 in the test filed under Rattus norvegicus [2] is more than 100 µM.
Consider `Cc1ccc(C(C)/N=C(\S)NCc2ccc(C(C)(C)C)cc2)cc1` (centres undefined), for which the concentration for half-maximal inhibition (IC50) in the test listed under Rattus norvegicus [1] was found to be 0.4 µM. Besides, in the test filed under Rattus norvegicus [2], the concentration for a half-maximal effect (EC50) was more than 100 µM.
For `CC(C)C(/N=C(\S)NCc1ccc(C(C)(C)C)cc1)c1ccc(NS(C)(=O)=O)cc1` (centres undefined), in that order: 3.24 µM and more than 100 µM.
In the case of `CC(C)(C)c1ccc(CNC(=S)NCc2ccc(NS(C)(=O)=O)cc2)cc1`, in the test filed under Rattus norvegicus [2], the concentration for a half-maximal effect (EC50) is more than 100 µM.
As for `C[C@@H](/N=C(\S)NCc1ccc(C(C)(C)C)cc1)c1ccccc1`, in the test listed under Rattus norvegicus [1], half-maximal inhibition (IC50) was put at 4.96 µM. In the test listed under Rattus norvegicus [2], this molecule gave an EC50 of more than 100 µM.
For `C[C@@H](/N=C(\S)NCc1ccc(C(C)(C)C)cc1)c1ccc(N)cc1`, the half-inhibitory concentration (IC50) in the test filed under Rattus norvegicus [1] amounted to 3.3 µM. In the test listed under Rattus norvegicus [2], the EC50 is more than 100 µM.
Take `CC(/N=C(\S)NCc1ccc(C(C)(C)C)cc1)c1ccc(NS(C)(=O)=O)cc1` (centres undefined): in the test filed under Rattus norvegicus [1], the IC50 was found to be 0.15 µM. Besides, in the test filed under Rattus norvegicus [2], the EC50 was more than 100 µM.
In the test listed under Rattus norvegicus [1], `C[C@@H](/N=C(\S)NCc1ccc(C(C)(C)C)cc1)c1ccc(C(C)(C)C)cc1` returned an IC50 of 3.49 µM. The same molecule showed an EC50 in the test listed under Rattus norvegicus [2] of more than 100 µM.
Molecule `CC(C)(C)c1ccc(C/N=C(\S)NC(c2ccccc2)c2ccc(NS(C)(=O)=O)cc2)cc1` (centres undefined) came in with a half-inhibitory concentration (IC50) in the test filed under Rattus norvegicus [1] of 16.7 µM. The EC50 in the test listed under Rattus norvegicus [2] is more than 100 µM.
In the case of `Oc1cc2c(cc1O)CN(C(=S)NCCc1ccc(Cl)cc1)CCC2` [CAPSAZEPINE], in the test filed under Rattus norvegicus [2], the EC50 was more than 100 µM.
On to `C[C@H](/N=C(\S)NCc1ccc(C(C)(C)C)cc1)c1ccc(NS(C)(=O)=O)cc1`, for which the IC50 in the test filed under Rattus norvegicus [1] was 1.47 µM. Besides, the EC50 in the test listed under Rattus norvegicus [2] is more than 100 µM.
